# Measured values taken from US8609858B2, “Spiro derivatives of parthenin as novel anticancer agents” (Council of Scientific & Industrial Research, priority 2008, dated 2013).
# “Also recorded” adds a separate entry of the source.
# Legend:
# [1] = test system: Ehrlich Ascites Tumor (EAT); assay: Anti tumor activity on solid Ehrlich Ascites Tumor (EAT) bearing mice; type: in vivo; settings: for % Tumor growth inhibition / Tumor Weight (mg) Mean ± SE: day 13; for mortality of test animals: EAT bearing mice
# Source text: (§1) Non-inbred swiss albino mice from an in-house colony were used in the present study. The breeding and experimental animals were housed in standard size polycarbonate cages providing internationally recommended space for each animal. Animals were fed balanced mice feed supplied by MIs Ashirwad Industries, Chandigarh (India) and autoclaved water was available ad libitum. Animals were cared as per the guide for the care and use of laboratory animals (1996), ILAR, Washington D.C. They were housed in controlled conditions of temperature (23±2° C.), humidity (50-60%) and 12:12 hrs of light: dark cycle. The study and the number of animals used were approved by the institutional animal ethics committee, IIIM, Jammu, India. The study was conducted as per the protocols of National Cancer Institute (NCl), USA (Geran et al., 1972).
# Parthenin and its derivative Compound-17 were evaluated against solid Ehrlich Ascites Tumor (EAT) models at different doses. A standard procedure for experiment was as followed:
# Animals of the same sex weighing 20±3 g were injected 1×10^7 cells collected from the peritoneal cavity of non-inbred swiss mice, bearing 8-10 days old tumor cells, into the right thigh, intramuscularly (on Day 1). On next day animals were randomized and divided into test groups (7 animals in each test group) and one tumor control group (10 animals). Test groups were treated with different doses of Parthenin (10 mg/kg, 25 mg/kg and 50 mg/kg) and its derivative Compound-17 (10 mg/kg, 25 mg/kg and 50 mg/kg, 100 mg/kg and 200 mg/kg) suspension in 1% gum acacia in, their respective group intraperitonealy for nine consecutive days. Another test group was administered 5-FU @ 22 mg/kg i.p and served as positive control. The tumor contra group was similarly administered normal saline (0.2 ml i.p). The percent tumor growth-inhibition was measured on day 13 with respect to their tumor weight (Geran et al., 1972): Shortest and longest diameters of the tumor mass were measured with the help of vernier caliper and tumor weight (mg) was calculated by using following formula Tumor weight (mg)=Length (mm)×(Width (mm)^2/2 The average tumor weight for each group was calculated and the percent tumor growth inhibition in treated groups was calculated as follows: % Tumor Growth Inhibition=100×(Average tumor weight of control group−Average tumor weight of test group)/Average tumor weight of control group Anti Tumor Activity of Parthenin and its Derivative Compound-17 on Ehrlich Ascites Carcinoma (EAC)
# [2] = test system: Ehrlich Ascites Carcinoma (EAC); assay: Anti tumor activity on Ehrlich Ascites Carcinoma (EAC) bearing mice; type: in vivo; settings: for % Tumor growth inhibition / Ascitic fluid volume (ml) Mean ± SE / Tumor cells in ascitic fluid (×10^7) Mean ± SE: day 12; for mortality of test animals: EAC bearing mice
# Source text: as §1
# Ehrlich Ascites Carcinoma (EAC) was propagated by transplanting 1×10^7 cells from an animal bearing 8-10 days old Ehrlich Ascites Carcinoma, into the peritoneal cavity of non-inbreed swiss mice. For testing, mice of the same sex weighing 20 ±3 g bearing ascites tumor were selected. 1×10^7 cells obtained from an animal bearing 8-10 days old ascites tumor were injected into peritoneal cavity of all animals used for testing (0 Day). On next day animals were randomized and divided into test groups (7 animals in each test group) and one tumor control group (10 animals). Test groups were treated with different doses of Parthenin (10 mg/kg, 25 mg/kg and 50 mg/kg) and its derivative Compound-17 (10 mg/kg, 25 mg/kg and 50 mg/kg, 100 mg/kg and 200 mg/kg) suspension in 1% gum acacia in their respective group intraperitonealy for nine consecutive days. Another test group was administered 5 FU @ 20 mg/kg i.p and served as positive control. The tumor control group was similarly administered normal saline (0.2 ml i.p). The percent tumor growth inhibition were measured on day 12 with respect to volume of ascitic fluid and the number of tumor cells in the ascitic fluid of peritoneal cavity (Geran et al., 1972; Singh et al., 2007).
# The percent tumor growth inhibition was calculated as follow. % growth inhibition=100×(Average no. of cells in control group−Average no. of cells in test group)/Average no. of cells in control group Results: […]
# SW-620 = assay: In vitro cytotoxicity screening (sulphodamine B dye), SW-620; type: cell-based; settings: Homo sapiens; SW-620 colon cancer cell line
# Protocol: (§2) Cells at sub confluent stage were harvested from the flask by treatment with trypsin (0.5% in PBS containing 0.02% EDTA) for determination of cytotoxicity. […] The cell suspensions of required cell density were prepared in complete growth medium with gentamycin (50 μg/ml) for determination of cytotoxicity. The cells (100 μl/well) were inoculated in 96 well tissue culture plates. The cells were allowed to grow for 24 hrs temperature of 37° C. and in a humidified atmosphere of 5% CO2 in air. Stock solution of (20 mM) of test material was prepared in DMSO. The stock solution was serially diluted with complete growth medium containing 50 μg/ml of gentamycin to obtain […] working test solutions of 1., 2, 5, 10, 50 and 100 μM.
# (§3) The media were supplemented with FCS (10%), penicillin (100 Units/ml), streptomycin (100 μg/ml) and glutamine (2 mM) and cells were grown in CO2 incubator (Hera cell, Heraeus, USA) at 37° C. with 90% humidity and 5% CO2.
# DU-145 = assay: In vitro cytotoxicity screening (sulphodamine B dye), DU-145; type: cell-based; settings: Homo sapiens; DU-145 prostate cancer cell line
# Protocol: as §2, §3
# PC-3 = assay: In vitro cytotoxicity screening (sulphodamine B dye), PC-3; type: cell-based; settings: Homo sapiens; PC-3 prostate cancer cell line
# Protocol: as §2, §3
SMILES,% Tumor growth inhibition ([1]; 22 mg/kg i.p.),Tumor Weight (mg) Mean ± SE ([1]; 22 mg/kg i.p.),% Tumor growth inhibition ([2]; 20 mg/kg i.p.),Ascitic fluid volume (ml) Mean ± SE ([2]; 20 mg/kg i.p.),Tumor cells in ascitic fluid (×10^7) Mean ± SE ([2]; 20 mg/kg i.p.),IC50 (SW-620),IC50 (DU-145),IC50 (PC-3),melting point,"% Tumor growth inhibition ([1]; 10 mg/kg i.p., nine days)","Tumor Weight (mg) Mean ± SE ([1]; 10 mg/kg i.p., nine days)",mortality of test animals ([1]; 25 mg/kg i.p.),mortality of test animals ([1]; 50 mg/kg i.p.),"% Tumor growth inhibition ([2]; 10 mg/kg i.p., nine days)","Ascitic fluid volume (ml) Mean ± SE ([2]; 10 mg/kg i.p., nine days)","Tumor cells in ascitic fluid (×10^7) Mean ± SE ([2]; 10 mg/kg i.p., nine days)",mortality of test animals ([2]; 25 mg/kg i.p.),mortality of test animals ([2]; 50 mg/kg i.p.)
"O=c1[nH]cc(F)c(=O)[nH]1 [Compound 5-FU, 5-Fluorouracil, reference compound]",51.28%,832.28 ± 35.21 mg,100%,0 mL,0 ×10^7,,,,,,,,,,,,,
C[C@H]1CC[C@@H]2[C@@H](OC(=O)C23CN3c2ccccc2[N+](=O)[O-])[C@]2(C)C(=O)C=C[C@]12O (stereo partly drawn) [Compound -39],,,,,,33 µM,28 µM,10 µM,222 to 224 °C,,,,,,,,,
C=C1C(=O)O[C@@H]2[C@H]1CC[C@H](C)[C@]1(O)C=CC(=O)[C@@]21C [Parthenin],,,,,,38.7 µM,31.1 µM,40.3 µM,,9.69%,1542.86 ± 35.24 mg,mortality of all the animals; also recorded: All animals died by 4th day,mortality of all the animals; also recorded: All animals died by 2nd day,12.01%,3.92 ± 0.38 mL,74.71 ± 2.77 ×10^7,mortality of all the test animals; also recorded: All animals died by 4th day,mortality of all the test animals; also recorded: All animals died by 2nd day
